Results on 9 compounds are retold here after patent publication US4933332A, “11-desoxy-17-α-hydroxycorticosterone derivatives” (priority 1988, dated 1990).

Where a name gives a salt, the structure may show the parent alone.

The test system of one data set is mice fibroblasts L-929. Particulars: effects are reversible; cited from earlier work.
The subject of a further data set is cell receptors. Particulars: effects are reversible; cited from earlier work.
The subject of a further data set is L 1210. Nature of the data set: Antitumor effect on grafted hemoblastoses (L 1210), extension of lifespan. The data set is classed as in vivo, mice and rats.
Another data set relates to P-388. Kind of data set: Antitumor effect on grafted hemoblastoses (P-388), extension of lifespan. Type of data set: in vivo, mice and rats.
The next data set deals with MOPG-406. Kind of data set: Antitumor effect on grafted hemoblastoses (MOPC-406), extension of lifespan. Type of data set: in vivo, mice and rats.
In data set [1] the test system is Viral leukosis Mazurenko LMC-1. Nature of the data set: Antitumor effect on grafted hemoblastoses (LMC-1), extension of lifespan. Type of data set: in vivo, mice and rats. The settings on record: LMC-1; days 2-6 after grafting; effective dose range per compound, 24 h × 5.
A further data set concerns Ca-755. Kind of data set: Antitumor effect on grafted solid tumor Ca-755. The data set is classed as in vivo, mice and rats.
The test system of another data set is S-37. Nature of the data set: Antitumor effect on grafted solid tumor S-37. The data set is classed as in vivo, mice and rats.
Data set [2] relates to Large intestine adenocarcinoma AKATOL. Nature of the data set: Antitumor effect on grafted large intestine adenocarcinoma AKATOL. The data set is classed as in vivo, mice and rats.
For the next data set, the system named is Lewis lung carcinoma LL. Nature of the data set: Antitumor effect on grafted Lewis lung carcinoma LL. The data set is classed as in vivo, mice and rats.
The next data set deals with Hepatoma G-22c. Nature of the data set: Antitumor effect on grafted hepatoma G-22c. Type of data set: in vivo, mice and rats. Particulars: G-22c; days 2-6; effective dose range per compound, 24 h × 5.
The subject of a further data set is Hepatoma G-60. Nature of the data set: Antitumor effect on grafted hepatoma G-60. Type of data set: in vivo, mice and rats.
In another data set the test system is Hepatoma G-61. Nature of the data set: Antitumor effect on grafted hepatoma G-61. The data set is classed as in vivo, mice and rats.
The subject of data set [3] is Alveolar mammary cancer RMK-1. Kind of data set: Antitumor effect on grafted alveolar mammary cancer RMK-1. Type of data set: in vivo, mice and rats.
Data set [4] has as its system adrenalectomized rat youngsters. Nature of the data set: Lifespan of adrenalectomized rat youngsters (biological test for the glucocorticoidal activity). Type of data set: in vivo. Particulars: 25-days adrenalectomized rats.
The test system of the next data set is La. Also noted: species or system mice and rats. Particulars: in vivo.
The test system of another data set is mice. The settings on record: mouse, in vivo.
A short description of another data set: in vivo. Particulars: mouse.
For another data set, the system named is S-180. Also noted: species or system mice and rats. The settings on record: in vivo.
For data set [5] the following is noted: cited from earlier work.

Turning to `CC1(C)O[C@@H]2C[C@H]3[C@@H]4CCC5=CC(=O)C=C[C@]5(C)[C@@]4(F)[C@@H](O)C[C@]3(C)[C@]2(C(=O)COC(=O)N(CCCl)CCCl)O1` [9αF,11β,16α, 17α,26-tetraoxypregna-1,4-diene-3,20-dione-21-[bis-(2-chloroethyl)carbamate], 16,17-acetonide], the “growth of cultures of mice fibroblasts L-929” value with mice fibroblasts L-929 was “inhibit growth of cultures of mice fibroblasts L-929”. Further, the “reaction with cell receptors” value in the data set on cell receptors is reported as “react with cell receptors”.

Take `C[C@]12CCC(=O)C=C1CC[C@@H]1[C@@H]2CC[C@@]2(C)[C@H]1CC[C@]2(O)C(=O)CO` [11-Desoxy-17α-hydroxycorticosterone, 11-desoxy-17α-hydroxycorticosterone, reference compound]: the “Extension of the lifespan of the animals (ELA)” value is listed as 6% in the data set with L 1210 (L 1210, days 2-6 after grafting, effective dose range per compound, 24 h × 5); -7% in the data set on P-388 (P-388, days 2-6 after grafting, effective dose range per compound, 24 h × 5); 0% in the data set with MOPG-406 (MOPG-406, days 2-6 after grafting, effective dose range per compound, 24 h × 5); 17% in data set [1]. For the same compound, the “Maximum tumor growth inhibition” value in the data set with Ca-755 (Ca-755, days 2-6, effective dose range per compound, 24 h × 5, "+" = stimulation of tumor growth) is “+105%”; with S-37 (S-37, days 2-6, effective dose range per compound, 24 h × 5), 29%; in data set [2] (AKATOL, days 2-6, effective dose range per compound, 24 h × 5, "+" = stimulation of tumor growth) it was “+41%”; in the data set with Lewis lung carcinoma LL (LL, days 2-6, effective dose range per compound, 24 h × 5) it was 28%; in the data set with Hepatoma G-22c, 3%; in the data set with Hepatoma G-60 (G-60, days 6-10, effective dose range per compound, 24 h × 5), 38%. Moreover, the “Maximum tumor growth inhibition” value with Hepatoma G-61 (G-61, days 7-11, effective dose range per compound, 24 h × 5) was 37%; in data set [3] (RMK-1, days 3-7, effective dose range per compound, 24 h × 5, "+" = stimulation of tumor growth), “+4%”. The “extension of lifespan of adrenalectomized rat youngsters” value in data set [4] is 115%.

As for `C[C@]12CCC(=O)C=C1CC[C@@H]1[C@@H]2CC[C@@]2(C)[C@H]1CC[C@]2(O)C(=O)COC(=O)CCCc1ccc(N(CCCl)CCCl)cc1` [11-desoxy-17α-hydroxy-21-[p-di(2-chloroethyl)aminophenylbutyrate] corticosterone], the “Extension of the lifespan of the animals (ELA)” value in the data set on L 1210 (in vivo) is on record as 20%; with P-388 (in vivo), 82%; with MOPG-406 (in vivo), 70%; in the data set with La, 18%. In the data set with mice, the “toxicity (relative)” value is listed as “even lower toxicity”. The MTD in “in vivo” amounted to 350 mg/kg.

In the case of `C[C@]12CCC(=O)C=C1CC[C@@H]1[C@@H]2[C@@H](O)C[C@@]2(C)[C@H]1CC[C@]2(O)C(=O)COC(=O)N(CCCl)CCCl` [11β,17α,21-trihydroxy-pregnene-4-3,20-dione-21-[bis(2-chloroethyl)carbamate]], the “growth of cultures of mice fibroblasts L-929” value with mice fibroblasts L-929 is recorded as “inhibit growth of cultures of mice fibroblasts L-929”. The “reaction with cell receptors” value in the data set with cell receptors is on record as “react with cell receptors”.

As to `O=C(O)CCCc1ccc(N(CCCl)CCCl)cc1` [Chlorambucyl, p-di-(2-chloroethyl)aminophenylbutyric acid, reference compound], the MTD in “in vivo” amounted to 25 mg/kg.

As to `C[C@]12CC[C@@H]3c4ccc(OC(=O)N(CCCl)CCCl)cc4CC[C@H]3[C@@H]1CC[C@@H]2OP(=O)(O)O` [Estracyte, estra-1,3,5-(10)treine-3,17β-diol-3N-[bis-(2-chloroethyl)carbamate-17-sodium phosphate, reference compound], the “Maximum tumor growth inhibition” value is recorded as “+6%” with Ca-755 (in vivo), 85% in the data set with S-37 (in vivo), “+23%” in the data set on S-180 and 29% in the data set on Lewis lung carcinoma LL (in vivo).

For `C[C@]12C=CC(=O)C=C1CC[C@@H]1[C@@H]2[C@@H](O)C[C@@]2(C)[C@H]1CC[C@]2(O)C(=O)COC(=O)CCCc1ccc(N(CCCl)CCCl)cc1` [Prednimustine, pregna-1,4-diene-3,20-dione, 11β17,21-trihydroxy-21-[p-di(2-chloroethyl)aminophenylbutyrate]], the hematotoxicity result in data set [5] (in vivo) is recorded as “Hematotoxicity usually limiting administration”. For the same compound, the side effects entry in [5] (oncological clinic) is “associated mainly with hematotoxicity”.

For `C[C@]12C=CC(=O)C=C1CC[C@@H]1[C@@H]2[C@@H](O)C[C@@]2(C)[C@H]1CC[C@]2(O)C(=O)CO` [Prednisolone, pregnadiene-1,4-triol-11β,17α,21-dione-3,20, reference compound], the “Maximum tumor growth inhibition” value in the data set with Ca-755 (in vivo) came to 70%; in the data set with S-37 (in vivo) it was 44%; in data set [2] (in vivo), 67%; in the data set with Lewis lung carcinoma LL (in vivo), 30%; with Hepatoma G-61 (in vivo), 44%.

As to `NC(Cc1ccc(N(CCCl)CCCl)cc1)C(=O)O` (stereo not drawn) [Sarcolysine, β-[p-di(2-chloroethyl)aminophenyl]-α-alanine hydrochloride, reference compound], the “Maximum tumor growth inhibition” value in the data set with Ca-755 (in vivo) was found to be 83%; with S-37 (in vivo), 95%; in the data set on S-180 it was 76%; in data set [2] (in vivo), 56%; in the data set on Lewis lung carcinoma LL (in vivo) it was 58%; with Hepatoma G-60 (in vivo), 90%. Also, the “Maximum tumor growth inhibition” value in the data set with Hepatoma G-61 (in vivo) is 87%; in data set [3] (in vivo), “+86%”.
